Reference: patent US8772504B2, “Substituted benzoxazole, benzimidazole, oxazolopyridine and imidazopyridine derivatives as gamma secretase modulators” (Janssen Pharmaceuticals, Inc., priority 2009, dated 2014)

Assays:
[1] = test system: Aβ42; assay: Screening for γ-secretase-modulating activity, Method 1: Aβ42 sandwich ELISA on SKNBE2 cell media; type: cell-based; conditions: SKNBE2 cells carrying APP 695 wild type
Method: (§1) Screening was carried out using SKNBE2 cells carrying the APP 695—wild type, grown in Dulbecco's Modified Eagle's Medium/Nutrient mixture F-12 (DMEM/NUT-mix F-12) (HAM) provided by Gibco (cat no. 31330-38) containing 5% Serum/Fe supplemented with 1% non-essential amino acids. Cells were grown to near confluency.
(§2) The screening was performed using the assay as described in Citron et al (1997) Nature Medicine 3: 67. Briefly, cells were plated in a 96-well plate at about 10^5 cells/ml one day prior to addition of compounds. Compounds were added to the cells in Ultraculture (Lonza, BE12-725F) supplemented with 1% glutamine (Invitrogen, 25030-024) for 18 hours. The media were assayed by two sandwich ELISAs, for Aβ42 and Aβtotal. Toxicity of the compounds was assayed by WST-1 cell proliferation reagent (Roche, 1 644 807) according to the manufacturer's protocol.
To quantify the amount of Aβ42 in the cell supernatant, commercially available Enzyme-Linked-Immunosorbent-Assay (ELISA) kits were used (Innotest® β-Amyloid(1-42), Innogenetics N.V., Ghent, Belgium). The Aβ42 ELISA was performed essentially according to the manufacturer's protocol. Briefly, the standards (dilutions of synthetic Aβ1-42) were prepared in polypropylene Eppendorf with final concentrations of 8000 down to 3.9 pg/ml (1/2 dilution step). Samples, standards and blanks (100 μl) were added to the anti-Aβ42-coated plate supplied with the kit (the capture antibody selectively recognizes the C-terminal end of the antigen). The plate was allowed to incubate 3 h at 25° C. in order to allow formation of the antibody-amyloid complex. Following this incubation and subsequent wash steps a selective anti-Aβ-antibody conjugate (biotinylated 3D6) was added and incubated for a minimum of 1 hour in order to allow formation of the antibody-Amyloid-antibody-complex. After incubation and appropriate wash steps, a Streptavidine-Peroxidase-Conjugate was added, followed 30 minutes later by an addition of 3,3′,5,5′-tetramethylbenzidine (TMB)/peroxide mixture, resulting in the conversion of the substrate into a coloured product. This reaction was stopped by the addition of sulfuric acid (0.9 N) and the colour intensity was measured by means of photometry with an ELISA-reader with a 450 nm filter.
(§3) To obtain the values reported in Table 3a, the sigmoidal dose response curves were analysed by computerised curve-fitting, with percent of inhibition plotted against compound concentration. A 4-parameter equation (model 205) in XLfit was used to determine the IC50. The top and the bottom of the curve were fixed to 100 and 0, respectively, and the hill slope was fixed to 1. The IC50 represents the concentration of a compound that is required for inhibiting a biological effect by 50% (Here, it is the concentration where Aβ peptide level is reduced by 50%).
(§4) To obtain the values reported in Table 3b, the data were calculated as percentage of the maximum amount of amyloid Beta 42 measured in the absence of the test compound. The sigmoidal dose response curves were analyzed using non-linear regression analysis with percentage of the control plotted against the log concentration of the compound. A 4-parameter equation was used to determine the IC50. The values reported in Table 3b are averaged IC50 values.

[2] = test system: Aβtotal; assay: Screening for γ-secretase-modulating activity, Method 1: Aβtotal sandwich ELISA on SKNBE2 cell media; type: cell-based; conditions: SKNBE2 cells carrying APP 695 wild type
Method: as §1, §2
To quantify the amount of Aβtotal in the cell supernatant, samples and standards were added to a 6E10-coated plate. The plate was allowed to incubate overnight at 4° C. in order to allow formation of the antibody-amyloid complex. Following this incubation and subsequent wash steps a selective anti-Aβ-antibody conjugate (biotinylated 4G8) was added and incubated for a minimum of 1 hour in order to allow formation of the antibody-Amyloid-antibody-complex. After incubation and appropriate wash steps, a Streptavidine-Peroxidase-Conjugate was added, followed 30 minutes later by an addition of Quanta Blu fluorogenic peroxidase substrate according to the manufacturer's instructions (Pierce Corp., Rockford, Ill.).
as §3, §4

[3] = Homo sapiens, Table 3a, 18 hours, XLfit, top/bottom fixed to 100 and 0, hill slope 1
[4] = Homo sapiens, Table 3b, non-linear regression of % of control, averaged IC50 values
[5] = Table 3a, 18 hours, XLfit, top/bottom fixed to 100 and 0, hill slope 1
[6] = Table 3b, non-linear regression of % of control, averaged IC50 values

IC50 [1, 3] [nM] | IC50 [1, 4] [nM] | IC50 [2, 3] [nM] | IC50 [2, 4] [nM] | IC50 [1, 5] [nM] | IC50 [1, 6] [nM] | IC50 [2, 5] [nM] | IC50 [2, 6] [nM] | SMILES
751 | 575 | > 30000 | 29500 |  |  |  |  | COc1cc(Nc2cccc3c2nc(CC2CCN(C(C)=O)CC2)n3C)ccc1-n1cnc(C)c1 [Compound 10]
1590 | 1260 | 12000 | 16600 |  |  |  |  | COc1cc(Nc2cccc3c2nc(CC2CCN(C)CC2)n3C)ccc1-n1cnc(C)c1 [Compound 11]
603 | 603 | > 10000 | > 10000 |  |  |  |  | Cc1ncnn1-c1ccc(Nc2nccc3c2nc(-c2ccc(F)cc2)n3C(C)C)cc1F [Compound 13]
132 | 132 | > 10000 | > 10000 |  |  |  |  | Cc1ncn(-c2ccc(Nc3cc(C(F)(F)F)cc4c3nc(-c3ccc(F)cc3)n4C)cn2)n1 [Compound 14]
267 | 257 | > 10000 | > 10000 |  |  |  |  | COc1cc(Nc2cccc3oc(-c4ccccc4Cl)nc23)ccc1-n1cnc(C)c1 [Compound 16]
178 | 174 | > 3000 | > 3000 |  |  |  |  | COc1cc(Nc2cccc3oc(C4CCCCC4)nc23)ccc1-n1cnc(C)c1 [Compound 17]
 |  |  |  | 1660 | 1660 | > 10000 | > 10000 | COc1cc(Nc2cccc3c2nc(C)n3C)ccc1-n1cnc(C)c1 [Compound 19]
 |  |  |  | 905 | 891 | > 33000 | 45700 | COc1cc(Nc2cccc3c2nc(C)n3C(C)C)ccc1-n1cnc(C)n1 [Compound 21]
 |  |  |  | 505 | 380 | 18000 | 17800 | CCCCc1nc2c(Nc3ccc(-n4cnc(C)n4)c(F)c3)cccc2n1C [Compound 24]
 |  |  |  | 19 | 19 | > 3000 | > 3000 | COc1cc(Nc2cccc3c2nc(CC(C)C)n3C)ccc1-n1cnc(C)c1 [Compound 25]
 |  |  |  | 517 | 708 | > 10000 | > 10000 | Cc1ncn(-c2ccc(Nc3cccc4c3nc(CC(C)C)n4CC(C)C)cc2)n1 [Compound 26]
 |  |  |  | 1250 | 1120 | > 10000 | 17400 | COCCn1c(CC(C)C)nc2c(Nc3ccc(-n4cnc(C)n4)cc3)cccc21 [Compound 27]
 |  |  |  | 1350 | 1350 | > 3000 | > 3000 | COc1cc(Nc2cccc3oc(CC(C)C)nc23)ccc1-n1cnc(C)n1 [Compound 28]
 |  |  |  | 1090 | 437 | > 10000 | > 10000 | COc1cc(Nc2cccc3c2nc(C(C)(C)C)n3C)ccc1-n1cnc(C)c1 [Compound 29]
 |  |  |  | 790 | 794 | > 3000 | > 3000 | COc1cc(Nc2cccc3oc(C(C)(C)C)nc23)ccc1-n1cnc(C)c1 [Compound 30]
 |  |  |  | 550 | 501 | 29700 | > 30000 | COc1cc(Nc2cccc3c2nc(OC(C)C)n3C)ccc1-n1cnc(C)c1 [Compound 31]
 |  |  |  | 216 | 209 | > 10000 | > 10000 | COCCCc1nc2c(Nc3ccc(-n4cnc(C)c4)c(OC)c3)cccc2n1C [Compound 32]
 |  |  |  | 51 | 43 | > 1000 | > 1000 | COc1cc(Nc2cccc3c2nc(CCC(F)(F)F)n3C)ccc1-n1cnc(C)c1 [Compound 34]
 |  |  |  | 266 | 275 | > 10000 | > 10000 | COc1cc(Nc2cccc3oc(C4CCCC4)nc23)ccc1-n1cnc(C)c1 [Compound 37]

IC50 [1, 3] [nM] | IC50 [1, 4] [nM] | IC50 [2, 3] [nM] | IC50 [2, 4] [nM] | IC50 [1, 5] [nM] | IC50 [1, 6] [nM] | IC50 [2, 5] [nM] | IC50 [2, 6] [nM] | SMILES
 |  |  |  | 69 | 87 | > 3000 | > 5000 | COc1cc(Nc2cccc3c2nc(N2CCCCC2)n3C)ccc1-n1cnc(C)c1 [Compound 39]
 |  |  |  | 1100 | 1100 | > 3000 | > 3000 | COc1cc(Nc2cccc3oc(C4CCN(C(=O)OC(C)(C)C)CC4)nc23)ccc1-n1cnc(C)c1 [Compound 42]
 |  |  |  | 123 | 120 | > 1000 | > 5000 | COc1cc(Nc2cccc3c2nc(CC2CCOCC2)n3C)ccc1-n1cnc(C)c1 [Compound 43]
10 | 10 | > 1000 | > 3000 |  |  |  |  | COc1cc(Nc2cccc3c2nc(-c2ccccc2C)n3Cc2ccccc2)ccc1-n1cnc(C)c1 [Compound 46]
 |  |  |  | 16 | 13 | > 1000 | > 3000 | COc1ccc(-c2nc3c(Nc4ccc(-n5cnc(C)c5)c(OC)c4)cccc3n2C)cc1 [Compound 47]
 |  |  |  | 427 | 398 | > 10000 | > 10000 | COc1ccccc1-c1nc2c(Nc3ccc(-n4cnc(C)c4)c(OC)c3)cccc2o1 [Compound 48]
 |  |  |  | 101 | 81 | > 10000 | > 10000 | COc1cccc(-c2nc3c(Nc4ccc(-n5cnc(C)n5)cc4)cccc3n2C)c1 [Compound 50]
 |  |  |  | 20 | 19 | > 3000 | > 3000 | COc1cccc(-c2nc3c(Nc4ccc(-n5cnc(C)n5)c(OC)c4)cccc3n2C)c1 [Compound 52]
 |  |  |  | 22 | 19 | > 1000 | > 3000 | COc1cccc(-c2nc3c(Nc4ccc(-n5cnc(C)n5)c(OC)c4)cccc3n2C(C)C)c1 [Compound 53]
 |  |  |  | 68 | 65 | > 3000 | > 3000 | CCOc1cc(C)c(-c2nc3c(Nc4ccc(-n5cnc(C)n5)c(OC)c4)cccc3n2C)cc1C(C)C [Compound 58]
 |  |  |  | 14 | 14 | > 1000 | > 3000 | CCOc1cc(C)c(Nc2nc3c(Nc4ccc(-n5cnc(C)c5)c(OC)c4)cccc3n2C)cc1C(C)C [Compound 60]
 |  |  |  | 114 | 195 | > 1000 | > 3000 | COc1cc(Nc2cccc3[nH]c(-c4ccc(F)cc4)nc23)ccc1-n1cnc(C)c1 [Compound 62]
 |  |  |  | 23 | 22 | > 1000 | > 3000 | COc1cc(Nc2cccc3c2nc(-c2ccc(F)cc2)n3C)ccc1-n1ccnc1 [Compound 63]
 |  |  |  | 48 | 49 | > 3000 | > 3000 | COc1cc(Nc2cccc3c2nc(-c2ccc(F)cc2)n3C)ccc1-n1cncn1 [Compound 64]
 |  |  |  | 89 | 81 | > 3000 | > 3000 | Cn1c(-c2ccc(F)cc2)nc2c(Nc3ccc(-n4cncn4)c(F)c3)cccc21 [Compound 65]
 |  |  |  | 720 | 724 | > 3000 | > 3000 | COc1cc(Nc2cccc3c2nc(-c2ccc(F)cc2)n3C)ccc1-n1cnc(C#N)c1 [Compound 72]
 |  |  |  | 190 | 191 | > 3000 | > 3000 | Cc1ncn(-c2ccc(Nc3cccc4c3nc(-c3ccc(F)cc3)n4C(C)(C)C)cc2)n1 [Compound 77]
 |  |  |  | 24 | 23 | > 10000 | > 10000 | COc1cc(Nc2cccc3c2nc(-c2ccc(F)cc2)n3Cc2ccccc2)ccc1-n1cnc(C)c1 [Compound 79]
